This passage reports IC50 results from patent US20240109917A1 (ACTELION PHARMACEUTICALS LTD, priority 2020, published 2024).

For assay [1], the target named is His6-TEV-PDGFRβ (557-1016) (Homo sapiens (Human), UniProt P09619). Briefly: PDGFRβ HTRF Assay. The class given is biochemical. Particulars: read-out: PDGFR HTRF IC50. A digest of the protocol:
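HTRF KinEASE-TK readout (665/620 nm ratio) of TK-biotin substrate phosphorylation by His-tagged PDGFRβ kinase domain. Enzyme and inhibitor preincubated 30 min, then ATP/substrate added for 3 h at room temperature before 60 min EDTA quench/detection.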
A general note: TR-FRET usually uses a lanthanide donor and a delayed reading to cut background.

Assay [2] deals with Tb-labeled inactive PDGFRβ (Homo sapiens (Human), UniProt P09619). Nature of the assay: PDGFRβ LanthaScreen Assay. The class given is binding. Particulars: read-out: PDGFR Lantha IC50.
A further assay addresses PDGFRβ (Rattus norvegicus (Rat), UniProt Q05030). Nature of the assay: PDGFRβ Cellular Assay (PDGFRb P-Y751 HTRF in A10 cells stimulated with PDGF-BB). Particulars: read-out: PDGFR Cellular IC50. It counts as cell-based. The protocol:
II. Methods and Procedures
Cell Culture and Preparation: Cells are cultured according to ATCC procedure (5) with the addition of the antibiotic penicillin-streptomycin. If working from frozen, cells should be thawed according to ATCC procedure. Depending on the cell density of frozen vial, cells will need time to recover from thaw. An 80% confluent T75 flask should be enough for one 384 well plate.
Stock Solutions: Rat PDGFBB. A 100 ug/mL stock is prepared by reconstituting 50 ug in 500 uL of 4 mM HCl and 0.1% BSA. It can be stored for a month at 4° C., or aliquoted out and frozen in the −20/−80° C. to avoid multiple free-thaw cycles.
Freshly Prepared Solutions:
1× Cisbio cell lysis buffer. The cell lysis buffer is diluted 4-fold with molecular grade water. The blocking agent is then diluted 25-fold in the diluted lysis buffer.
Antibody solutions. Equal amounts d2 and cryptate antibody are diluted 20-fold in detection buffer.
Rat PDGFBB. A working stock of 100 ng/mL is created from the stock solution in 10% FBS culture media.
Step 1: Plating Cells: Media from the A10 cell flask is aspirated. The cells are rinsed with PBS and then trypsinized to disperse the cell layer. The cells are then pelleted are resuspended to 1.25e5 cells/mL. […] Plates are covered and placed in the incubator (37° C. 5% CO2) overnight to allow cells to adhere.
Step 2: Compound Dispense: Approximately 18 hours after plating, dispense 40 nL compound onto cells using Echo. Column 12 is the neutral control DMSO, column 24 is the inhibitor control 10 mM Imatinib (10 uM final assay concentration). The plate is returned to the incubator for 3 hours.
After 10 minutes the media is removed by flicking the plate.
Step 4: Cell lysis and antibody addition: 20 uL lysis buffer per well is added to the plate via Tempest. 5 uL antibody solution is added per well via the Tempest. The plate is placed on the shaker at 230 rpm for 1 hour at room temperature.
Step 5: Detection: The plate is read using the HTRF module on the BMG Pherastar. Data is analyzed using Genedata Screener.
III. Calculations and Formulas
% Inhibition: % Inhibition=(NC−sample)/(NC−PC)*100 where NC is the mean of negative control (reactions without inhibitor), and PC is the mean of positive control (10 μM imatinib).
IC50 values are determined from a 4-parameter fit, using the following equation: Y=Bottom+(Top−Bottom)/(1+10((Log IC50−X)*Hill slope)), where X=log10 of the compound concentration; top can be defined by PC; bottom defined by NC.

Sequence of Tb-labeled inactive PDGFRβ (P09619 33-1106): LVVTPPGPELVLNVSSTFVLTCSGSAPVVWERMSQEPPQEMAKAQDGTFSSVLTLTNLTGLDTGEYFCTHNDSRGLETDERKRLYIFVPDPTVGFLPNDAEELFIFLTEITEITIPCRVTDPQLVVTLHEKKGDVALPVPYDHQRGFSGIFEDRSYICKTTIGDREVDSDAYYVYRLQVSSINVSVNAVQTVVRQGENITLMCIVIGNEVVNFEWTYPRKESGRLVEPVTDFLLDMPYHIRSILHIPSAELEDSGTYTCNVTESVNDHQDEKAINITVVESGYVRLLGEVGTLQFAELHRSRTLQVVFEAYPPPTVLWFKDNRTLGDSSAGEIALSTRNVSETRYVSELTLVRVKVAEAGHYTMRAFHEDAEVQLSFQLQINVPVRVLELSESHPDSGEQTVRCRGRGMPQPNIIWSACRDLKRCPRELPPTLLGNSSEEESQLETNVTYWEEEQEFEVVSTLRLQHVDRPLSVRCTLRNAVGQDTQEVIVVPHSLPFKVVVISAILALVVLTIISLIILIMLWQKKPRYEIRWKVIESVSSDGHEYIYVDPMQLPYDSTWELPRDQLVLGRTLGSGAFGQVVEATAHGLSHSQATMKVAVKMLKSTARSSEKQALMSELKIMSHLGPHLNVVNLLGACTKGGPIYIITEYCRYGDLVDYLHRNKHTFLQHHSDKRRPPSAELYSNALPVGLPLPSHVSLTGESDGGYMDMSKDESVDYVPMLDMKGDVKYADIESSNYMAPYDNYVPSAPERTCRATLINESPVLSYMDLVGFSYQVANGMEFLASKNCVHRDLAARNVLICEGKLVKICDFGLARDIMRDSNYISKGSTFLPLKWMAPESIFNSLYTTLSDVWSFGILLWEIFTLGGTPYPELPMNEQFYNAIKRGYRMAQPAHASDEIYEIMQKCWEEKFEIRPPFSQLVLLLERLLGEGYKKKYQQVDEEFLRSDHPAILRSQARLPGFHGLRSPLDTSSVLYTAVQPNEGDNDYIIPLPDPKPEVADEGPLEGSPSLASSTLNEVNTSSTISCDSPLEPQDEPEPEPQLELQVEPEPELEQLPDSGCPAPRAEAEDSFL
Sequence of His6-TEV-PDGFRβ (557-1016) (P09619 557-1016): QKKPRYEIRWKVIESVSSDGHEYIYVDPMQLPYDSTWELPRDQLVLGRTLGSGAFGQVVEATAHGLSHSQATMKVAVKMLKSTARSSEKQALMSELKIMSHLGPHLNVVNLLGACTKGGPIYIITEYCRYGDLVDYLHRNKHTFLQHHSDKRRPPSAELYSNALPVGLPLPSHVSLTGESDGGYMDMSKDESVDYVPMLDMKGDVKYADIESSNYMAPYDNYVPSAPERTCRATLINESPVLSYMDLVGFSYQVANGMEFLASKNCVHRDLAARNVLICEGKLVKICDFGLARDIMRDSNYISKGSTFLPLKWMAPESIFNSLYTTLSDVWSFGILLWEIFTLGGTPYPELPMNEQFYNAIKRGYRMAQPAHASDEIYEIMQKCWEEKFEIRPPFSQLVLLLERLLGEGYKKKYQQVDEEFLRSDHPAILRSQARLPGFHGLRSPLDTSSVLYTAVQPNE
Sequence of PDGFRβ (Q05030 32-1097): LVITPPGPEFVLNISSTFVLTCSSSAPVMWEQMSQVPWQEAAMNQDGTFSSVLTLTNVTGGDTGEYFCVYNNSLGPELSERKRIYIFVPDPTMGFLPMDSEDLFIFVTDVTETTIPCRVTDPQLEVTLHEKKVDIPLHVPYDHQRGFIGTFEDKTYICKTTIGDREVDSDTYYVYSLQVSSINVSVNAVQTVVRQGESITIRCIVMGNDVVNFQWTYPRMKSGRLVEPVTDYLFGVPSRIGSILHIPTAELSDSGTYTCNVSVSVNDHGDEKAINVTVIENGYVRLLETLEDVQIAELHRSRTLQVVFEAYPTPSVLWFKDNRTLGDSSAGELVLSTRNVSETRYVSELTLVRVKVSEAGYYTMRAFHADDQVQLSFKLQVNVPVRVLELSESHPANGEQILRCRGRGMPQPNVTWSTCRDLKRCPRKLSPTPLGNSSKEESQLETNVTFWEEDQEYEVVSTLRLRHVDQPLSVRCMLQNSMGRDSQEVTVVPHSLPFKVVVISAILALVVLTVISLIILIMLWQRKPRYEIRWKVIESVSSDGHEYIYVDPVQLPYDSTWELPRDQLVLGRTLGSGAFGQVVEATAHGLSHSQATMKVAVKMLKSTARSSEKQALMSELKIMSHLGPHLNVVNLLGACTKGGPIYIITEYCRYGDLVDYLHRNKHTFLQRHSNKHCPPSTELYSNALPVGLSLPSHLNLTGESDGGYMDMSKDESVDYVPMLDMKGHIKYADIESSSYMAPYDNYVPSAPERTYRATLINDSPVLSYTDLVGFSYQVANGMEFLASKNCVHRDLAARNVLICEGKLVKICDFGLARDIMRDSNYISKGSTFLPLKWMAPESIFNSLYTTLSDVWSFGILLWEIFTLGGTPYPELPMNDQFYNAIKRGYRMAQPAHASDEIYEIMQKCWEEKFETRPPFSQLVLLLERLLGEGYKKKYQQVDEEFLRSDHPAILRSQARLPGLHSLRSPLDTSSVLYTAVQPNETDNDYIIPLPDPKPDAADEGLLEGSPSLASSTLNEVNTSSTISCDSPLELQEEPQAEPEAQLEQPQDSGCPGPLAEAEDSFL

In the case of `Cc1ncc(C(=O)NCCN2C3CCCC2CCC3)cc1NC(=O)c1cnn2cc(-c3cnn(C)c3)sc12` [Example 4, N-(5-((2-(9-azabicyclo[3.3.1]nonan-9-yl)ethyl)carbamoyl)-2-methylpyridin-3-yl)-2-(1-methyl-1H-pyrazol-4-yl)pyrazolo[5,1-b]thiazole-7-carboxamide], the IC50 worked out at 0.3 nM in assay [1], 2.3 nM in assay [2] and 11.7 nM at PDGFRβ.
For the molecule `Cc1ncc(C(=O)NCCN2CC3CC(C3)C2)cc1NC(=O)c1cnn2cc(-c3cnn(C)c3)sc12` [Example 5, N-(5-((2-(3-azabicyclo[3.1.1]heptan-3-yl)ethyl)carbamoyl)-2-methylpyridin-3-yl)-2-(1-methyl-1H-pyrazol-4-yl)pyrazolo[5,1-b]thiazole-7-carboxamide], the values for the IC50 (in assay [1]; in assay [2]; on PDGFRβ) were 0.4 nM, 5.8 nM and 26.2 nM, respectively.
On the same counts, the results for `Cc1ncc(C(=O)NCCN2CCCC2(C)C)cc1NC(=O)c1cnn2cc(-c3cnn(C4CC4)c3)sc12` [Example 6, 2-(1-cyclopropyl-1H-pyrazol-4-yl)-N-(5-((2-(2,2-dimethylpyrrolidin-1-yl)ethyl)carbamoyl)-2-methylpyridin-3-yl)pyrazolo[5,1-b]thiazole-7-carboxamide] are 0.2 nM, 4.7 nM and 7.7 nM.
In the case of `Cc1ncc(C(=O)NCCN2CCCC2(C)C)cc1NC(=O)c1cnn2cc(-c3ccncc3)sc12` [Example 7, N-(5-((2-(2,2-dimethylpyrrolidin-1-yl)ethyl)carbamoyl)-2-methyl-pyridin-3-yl)-2-(pyridin-4-yl)pyrazolo[5,1-b]thiazole-7-carboxamide], the IC50 worked out at 0.5 nM in assay [1], 8.3 nM in assay [2] and 15.8 nM at PDGFRβ.
On the same counts, the results for `Cc1ncc(C(=O)NCCN2CCCC2(C)C)cc1NC(=O)c1cnn2cc(-c3cnn(C)c3)sc12` [Example 8, N-(5-((2-(2,2-dimethylpyrrolidin-1-yl)ethyl)carbamoyl)-2-methylpyridin-3-yl)-2-(1-methyl-1H-pyrazol-4-yl)pyrazolo[5,1-b]thiazole-7-carboxamide] are 0.4 nM, 4.7 nM and 43.6 nM.
Consider `Cc1ncc(C(=O)NCCN2CCCC2(C)C)cc1NC(=O)c1cnn2cc(-c3ccn(C)n3)sc12` [Example 9, N-(5-((2-(2,2-dimethylpyrrolidin-1-yl)ethyl)carbamoyl)-2-methylpyridin-3-yl)-2-(1-methyl-1H-pyrazol-3-yl)pyrazolo[5,1-b]thiazole-7-carboxamide], for which the IC50 in assay [1] amounted to 0.3 nM; in assay [2] it was 3.5 nM; at PDGFRβ, 16.8 nM.
`Cc1ncc(NC(=O)CCN2CCCC2(C)C)cc1NC(=O)c1cnn2cc(-c3cnn(C)c3)sc12` [Example 10, N-(5-(3-(2,2-dimethylpyrrolidin-1-yl)propanamido)-2-methyl-pyridin-3-yl)-2-(1-methyl-1H-pyrazol-4-yl)pyrazolo[5,1-b]thiazole-7-carboxamide]: the IC50 is 0.3 nM in assay [1], 2.8 nM in assay [2] and 5.2 nM on PDGFRβ.
As to `Cc1ncc(NC(=O)CCN2CCCC2(C)C)cc1NC(=O)c1cnn2cc(-c3ccnn3C)sc12` [Example 11, N-(5-(3-(2,2-dimethylpyrrolidin-1-yl)propanamido)-2-methyl-pyridin-3-yl)-2-(1-methyl-1H-pyrazol-5-yl)pyrazolo[5,1-b]thiazole-7-carboxamide], the IC50 in assay [1] came to 0.5 nM; in assay [2] it was 5 nM; on PDGFRβ, 10.6 nM.
On the same counts, the results for `COCCn1cc(-c2cn3ncc(C(=O)Nc4cc(NC(=O)CCN5CCC56CCC6)cnc4C)c3s2)cn1` [Example 95, N-(5-(3-(1-azaspiro[3.3]heptan-1-yl)propanamido)-2-methylpyridin-3-yl)-2-(1-(2-methoxyethyl)-1H-pyrazol-4-yl)pyrazolo[5,1-b]thiazole-7-carboxamide] are 0.4 nM, 5.1 nM and 17.9 nM.
As for `Cc1ncc(NC(=O)CCN2CC(C)(C)C2)cc1NC(=O)c1cnn2cc(-c3cnn(C)c3)sc12` [Example 96, N-(5-(3-(3,3-dimethylazetidin-1-yl)propanamido)-2-methylpyridin-3-yl)-2-(1-methyl-1H-pyrazol-4-yl)pyrazolo[5,1-b]thiazole-7-carboxamide], the IC50 in assay [1] came to 0.6 nM; in assay [2], 28.4 nM; at PDGFRβ, 17 nM.
On to `Cc1ncc(NC(=O)CCN2CCC3(CC2)CC3)cc1NC(=O)c1cnn2cc(-c3cnn(C)c3)sc12` [Example 97, N-(5-(3-(6-azaspiro[2.5]octan-6-yl)propanamido)-2-methylpyridin-3-yl)-2-(1-methyl-1H-pyrazol-4-yl)pyrazolo[5,1-b]thiazole-7-carboxamide], for which the results for the IC50 (in assay [1]; in assay [2]; on PDGFRβ) were 0.4 nM, 6.4 nM and 8.4 nM, respectively.
Turning to `Cc1ncc(NC(=O)CCN2CCCC23CC3)cc1NC(=O)c1cnn2cc(-c3cnn(C)c3)sc12` [Example 98], the figures for the IC50 (in assay [1]; in assay [2]; on PDGFRβ) were 0.3 nM, 2.9 nM and 4.7 nM, respectively.
Regarding `COCCn1cc(-c2cn3ncc(C(=O)Nc4cc(NC(=O)CCN5CC6CCC5CC6)cnc4C)c3s2)cn1` [Example 100, N-(5-(3-(2-azabicyclo[2.2.2]octan-2-yl)propanamido)-2-methylpyridin-3-yl)-2-(1-(2-methoxyethyl)-1H-pyrazol-4-yl)pyrazolo[5,1-b]thiazole-7-carboxamide], the 50% inhibitory concentration (IC50) was 0.5 nM in assay [1], 7.5 nM in assay [2] and 33.4 nM on PDGFRβ.
On to `COCCn1nc(C)c(-c2cn3ncc(C(=O)Nc4cc(NC(=O)CCN5CC6CCC(C5)O6)cnc4C)c3s2)c1C` [Example 102, N-(5-(3-(8-oxa-3-azabicyclo[3.2.1]octan-3-yl)propanamido)-2-methylpyridin-3-yl)-2-(1-(2-methoxyethyl)-3,5-dimethyl-1H-pyrazol-4-yl)pyrazolo[5,1-b]thiazole-7-carboxamide], for which the values for the half-maximal inhibitory concentration (IC50) (in assay [1]; in assay [2]; on PDGFRβ) were 1.3 nM, 1 nM and 21.8 nM, respectively.
`COCCn1nc(C)c(-c2cn3ncc(C(=O)Nc4cc(NC(=O)CCN5CCC6(CC6)C5)cnc4C)c3s2)c1C` [Example 103, N-(5-(3-(5-azaspiro[2.4]heptan-5-yl)propanamido)-2-methylpyridin-3-yl)-2-(1-(2-methoxyethyl)-3,5-dimethyl-1H-pyrazol-4-yl)pyrazolo[5,1-b]thiazole-7-carboxamide]: the 50% inhibitory concentration (IC50) came to 0.8 nM in assay [1], 8.6 nM in assay [2] and 38.8 nM on PDGFRβ.
Take `Cc1ncc(NC(=O)CCN2CCC3(CC3)C2)cc1NC(=O)c1cnn2cc(-c3cnn(C)c3)sc12` [Example 104, N-(5-(3-(5-azaspiro[2.4]heptan-5-yl)propanamido)-2-methylpyridin-3-yl)-2-(1-methyl-1H-pyrazol-4-yl)pyrazolo[5,1-b]thiazole-7-carboxamide]: the half-maximal inhibitory concentration (IC50) worked out at 0.4 nM in assay [1], 9.8 nM in assay [2] and 9.2 nM on PDGFRβ.
Turning to `Cc1ncc(NC(=O)CCCN2CCC[C@@H]2C)cc1NC(=O)c1cnn2cc(-c3cnn(C)c3)sc12` [Example 106, (S)-2-(1-methyl-1H-pyrazol-4-yl)-N-(2-methyl-5-(4-(2-methylpyrrolidin-1-yl)butanamido)pyridin-3-yl)pyrazolo[5,1-b]thiazole-7-carboxamide], the half-inhibitory concentration (IC50) stood at 1.3 nM in assay [1], 67 nM in assay [2] and 461 nM on PDGFRβ.
On to `Cc1ncc(NC(=O)NCC2CCN(C)CC2)cc1NC(=O)c1cnn2cc(-c3cnn(C)c3)sc12` [Example 107, 2-(1-methyl-1H-pyrazol-4-yl)-N-(2-methyl-5-(3-((1-methylpiperidin-4-yl)methyl)ureido)pyridin-3-yl)pyrazolo[5,1-b]thiazole-7-carboxamide], for which the values for the IC50 (in assay [1]; in assay [2]; at PDGFRβ) were 13.2 nM, 582 nM and more than 3000 nM, respectively.

By IC50 is commonly meant the concentration at which inhibition is half-maximal.
